Assay results as given in patent US20260226065A1, “SUBSTITUTED BENZENE COMPOUND” (DAIICHI SANKYO COMPANY, LIMITED, priority 2023, published 2026).
Where a name gives a salt, the structure may show the parent alone.

What follows are compounds tested against T1, NLRP3 inflammasome (Homo sapiens, UniProt Q96P20) (assay: In vitro IL-1β production test (PMA-differentiated THP-1 cells, Nigericin stimulation, AlphaLISA)). Conditions: inhibition of IL-1β production; THP-1 cells differentiated with 200 nM PMA; 0.015 mM Nigericin; 2 hours.
T1 construct: endogenous in cells; host or cells: THP-1 (human monocyte-derived), PMA-differentiated, Nigericin-stimulated
T1 sequence (Q96P20 whole entry): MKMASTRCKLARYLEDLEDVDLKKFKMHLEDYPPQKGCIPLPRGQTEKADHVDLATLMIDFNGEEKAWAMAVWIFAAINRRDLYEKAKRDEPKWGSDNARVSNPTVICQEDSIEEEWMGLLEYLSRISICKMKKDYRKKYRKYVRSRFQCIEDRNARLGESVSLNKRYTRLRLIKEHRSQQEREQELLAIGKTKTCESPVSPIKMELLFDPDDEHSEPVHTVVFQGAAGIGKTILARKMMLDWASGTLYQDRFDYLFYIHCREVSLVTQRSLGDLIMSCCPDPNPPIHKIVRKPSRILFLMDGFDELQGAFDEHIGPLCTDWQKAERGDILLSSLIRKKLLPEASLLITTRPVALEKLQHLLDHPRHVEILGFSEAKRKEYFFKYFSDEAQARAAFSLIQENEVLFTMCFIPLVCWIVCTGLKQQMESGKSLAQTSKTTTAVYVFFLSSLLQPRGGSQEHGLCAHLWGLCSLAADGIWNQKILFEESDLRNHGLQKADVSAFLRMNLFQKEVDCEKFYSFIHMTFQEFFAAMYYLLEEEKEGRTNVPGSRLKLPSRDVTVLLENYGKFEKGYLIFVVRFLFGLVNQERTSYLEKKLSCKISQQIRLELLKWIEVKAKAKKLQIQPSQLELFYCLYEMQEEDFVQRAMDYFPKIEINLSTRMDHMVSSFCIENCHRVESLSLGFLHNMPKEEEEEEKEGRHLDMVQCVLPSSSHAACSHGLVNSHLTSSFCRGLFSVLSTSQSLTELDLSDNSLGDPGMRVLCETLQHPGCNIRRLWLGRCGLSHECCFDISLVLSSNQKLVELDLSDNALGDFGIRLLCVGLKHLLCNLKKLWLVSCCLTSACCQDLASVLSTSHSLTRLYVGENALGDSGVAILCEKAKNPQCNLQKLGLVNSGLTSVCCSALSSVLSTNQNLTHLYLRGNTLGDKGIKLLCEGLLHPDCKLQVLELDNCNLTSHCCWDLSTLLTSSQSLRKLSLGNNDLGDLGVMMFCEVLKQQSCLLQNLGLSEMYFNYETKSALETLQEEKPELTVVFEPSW
Type: cell-based
Protocol: Human monocyte-derived THP-1 cells were cultured for one day in 10% bovine serum-containing RPMI-1640 medium (Thermo #A10491-01) supplemented with 200 nM phorbol 12-myristate 13-acetate (PMA, Sigma #P8139) to induce differentiation.
NLRP3 inflammasome was induced by replacing the culture medium with bovine serum-free RPMI-1640 medium supplemented with 0.015 mM Nigericin (Sigma #SML1779) and the test compound of known concentrations.
After 2 hours, the culture medium supernatant was collected and the IL-1β protein concentration was measured using the AlphaLISA (registered trademark) assay (PerkinElmer #AL220C).
The IL-1β concentration without the addition of the test compound and with Nigericin stimulation was set as 0% inhibitory activity, and the IL-1β concentration without Nigericin stimulation was set as 100% inhibitory activity, and the inhibition rate (% inhibition) of the test compound at each added concentration was calculated.
The % inhibition value was subjected to sigmoid fitting using a logistic regression model to calculate the 50% inhibitory concentration (IC50 value).
An IC50 of 25.8 nM was found for `Cc1cc(C(F)(F)F)cc(O)c1-c1cc2c(nn1)N([C@@H]1CCCN(C)C1)CCCN2C` [Example 37, 3-methyl-2-{5-methyl-9-[(3R)-1-methylpiperidin-3-yl]-6,7,8,9-tetrahydro-5H-pyridazino[3,4-b][1,4]diazepin-3-yl}-5-(trifluoromethyl)phenol] in this work.
An IC50 of 108 nM was found for `CN1CCC[C@@H](N2CCN3CCCc4c(-c5ccc(C(F)(F)F)cc5O)nnc2c43)C1` [Example 38, 2-{9-[(3R)-1-methylpiperidin-3-yl]-5,6,8,9-tetrahydro-4H, 7H-1,2,6a,9-tetraazaphenalen-3-yl}-5-(trifluoromethyl)phenol] in this work.
An IC50 of 401 nM was found for `Cc1c(-c2ccc(C(F)(F)F)cc2O)nnc2c1CCN2[C@H]1C[C@@](C)(O)C1` [Example 39, 2-{7-[(1s,3s)-3-hydroxy-3-methylcyclobutyl]-4-methyl-6,7-dihydro-5H-pyrrolo[2,3-c]pyridazin-3-yl}-5-(trifluoromethyl)phenol] in this work.
An IC50 of 162 nM was found for `Cc1cc(C(F)(F)F)cc(O)c1-c1cc2c(nn1)N([C@H]1C[C@@](C)(O)C1)CC2` [Example 40, 2-{7-[(1s,3s)-3-hydroxy-3-methylcyclobutyl]-6,7-dihydro-5H-pyrrolo[2,3-c]pyridazin-3-yl}-3-methyl-5-(trifluoromethyl)phenol monohydrochloride] in this work.
An IC50 of 77.5 nM was found for `Cc1c(-c2ccc3c(c2O)CCC3)nnc2c1ccn2[C@H]1C[C@@](C)(O)C1` [Example 41, 5-{7-[(1s,3s)-3-hydroxy-3-methylcyclobutyl]-4-methyl-7H-pyrrolo[2,3-c]pyridazin-3-yl}-2,3-dihydro-1H-inden-4-ol] in this work.
An IC50 of 22.1 nM was found for `Cc1cc2c(c(O)c1-c1cc3c(C)cn([C@H]4C[C@@](C)(O)C4)c3nn1)CCC2` [Example 43, 5-{7-[(1s,3s)-3-hydroxy-3-methylcyclobutyl]-5-methyl-7H-pyrrolo[2,3-c]pyridazin-3-yl}-6-methyl-2,3-dihydro-1H-inden-4-ol] in this work.
An IC50 of 75 nM was found for `CCc1cn([C@H]2C[C@@](C)(O)C2)c2nnc(-c3c(C)cc(C(F)(F)F)cc3O)cc12` [Example 44, 2-{5-ethyl-7-[(1s,3s)-3-hydroxy-3-methylcyclobutyl]-7H-pyrrolo[2,3-c]pyridazin-3-yl}-3-methyl-5-(trifluoromethyl)phenol] in this work.
An IC50 of 8.81 nM was found for `Cc1cc(C(F)(F)F)cc(O)c1-c1cc2c(C#N)cn([C@H]3C[C@@](C)(O)C3)c2nn1` [Example 45, 7-[(1s,3s)-3-hydroxy-3-methylcyclobutyl]-3-[2-hydroxy-6-methyl-4-(trifluoromethyl)phenyl]-7H-pyrrolo[2,3-c]pyridazine-5-carbonitrile] in this work.
An IC50 of 91.4 nM was found for `Cc1cc(C(F)(F)F)cc(O)c1-c1cc2c(C3CC3)cn([C@H]3C[C@@](C)(O)C3)c2nn1` [Example 46, 2-[5-cyclopropyl-7-[(1s,3s)-3-hydroxy-3-methylcyclobutyl]-7H-pyrrolo[2,3-c]pyridazin-3-yl]-3-methyl-5-(trifluoromethyl)phenol] in this work.
An IC50 of 101 nM was found for `Cc1cc(C(F)(F)F)c(F)c(O)c1-c1cc2c(C)cn([C@H]3C[C@@](C)(O)C3)c2nn1` [Example 48, 2-fluoro-6-{7-[(1s,3s)-3-hydroxy-3-methylcyclobutyl]-5-methyl-7H-pyrrolo[2,3-c]pyridazin-3-yl}-5-methyl-3-(trifluoromethyl)phenol] in this work.
An IC50 of 78 nM was found for `Cc1cc(C(F)(F)F)cc(O)c1-c1cc2c(nn1)N([C@H]1CN(C)CC[C@H]1O)CC2` [Example 49, (3S,4R)-3-{3-[2-hydroxy-6-methyl-4-(trifluoromethyl)phenyl]-5,6-dihydro-7H-pyrrolo[2,3-c]pyridazin-7-yl}-1-methylpiperidin-4-ol] in this work.
An IC50 of 236 nM was found for `Cc1c(F)c(C(F)(F)F)cc(O)c1-c1cc2c(C)cn([C@H]3C[C@@](C)(O)C3)c2nn1` [Example 50, 4-fluoro-2-{7-[(1s,3s)-3-hydroxy-3-methylcyclobutyl]-5-methyl-7H-pyrrolo[2,3-c]pyridazin-3-yl}-3-methyl-5-(trifluoromethyl)phenol] in this work.
